Laboratory results reported in US20060127310A1, “Amplification of biotin-mediated targeting” (priority 2002, published 2006).

Legend:
O157 = test: Uptake of Rhodamine-HPMA polymers into tumour cell lines; assay type: cell-based; design: key: −: Uptake was determined on a relative scale; +/−: Uptake was determined on a relative scale; +: Uptake was determined on a relative scale; ++: Uptake was determined on a relative scale; +++: Uptake was determined on a relative scale; settings: O157, Balb/C, Bcell Lymph; 5 hours at 37° C.
Protocol: (§1) Cells from various tumour cell lines were allowed to grow for 2 days on glass slides incubated in appropriate media at 37° C. in 5% CO2. […] Cells were incubated for a further 5 hours at 37° C. in 5% CO2. At this time the media was removed and uptake into the cells was assessed by fluorescent microscopy of internalization of the rhodamine fluorophore. Uptake was determined on a relative scale.

4T1 = test: as above; assay type: cell-based; settings: 4T1, Balb/C, Breast; 5 hours at 37° C.
Protocol: as §1

B16 = test: as above; assay type: cell-based; settings: B16, C57/BI, Melanoma; 5 hours at 37° C.
Protocol: as §1

BW5147 = test: as above; assay type: cell-based; settings: BW5147, AKR/J, Lymphoma; 5 hours at 37° C.
Protocol: as §1

Colo-26 = test: as above; assay type: cell-based; settings: Colo-26, Balb/C, Colon Carcin; 5 hours at 37° C.
Protocol: as §1

HCT-116 = test: as above; assay type: cell-based; settings: HCT-116, Balb/C-Nu, Colon Carcin; 5 hours at 37° C.
Protocol: as §1

ID8 = test: as above; assay type: cell-based; settings: ID8, C57/BI, Ovarian; 5 hours at 37° C.
Protocol: as §1

JC = test: as above; assay type: cell-based; settings: Balb/C, Breast, 5 hours at 37° C.
Protocol: as §1

L1210FR = test: as above; assay type: cell-based; settings: DBA/2, Leukemia, 5 hours at 37° C.
Protocol: as §1

L1210 = test: as above; assay type: cell-based; settings: L1210, DBA/2, Leukemia; 5 hours at 37° C.
Protocol: as §1

LL-2 = test: as above; assay type: cell-based; settings: LL-2, C57/BI, Lung; 5 hours at 37° C.
Protocol: as §1

M109 = test: as above; assay type: cell-based; settings: M109, Balb/C, Lung; 5 hours at 37° C.
Protocol: as §1

MMT060562 = test: as above; assay type: cell-based; settings: MMT060562, Balb/C, Breast; 5 hours at 37° C.
Protocol: as §1

Ov 2008 = test: as above; assay type: cell-based; settings: Ov 2008, Balb/C-Nu, Ovarian; 5 hours at 37° C.
Protocol: as §1

Ovcar = test: as above; assay type: cell-based; settings: Ovarian, 5 hours at 37° C.
Protocol: as §1

P815 = test: as above; assay type: cell-based; settings: P815, DBA/2, Mastocytoma; 5 hours at 37° C.
Protocol: as §1

RENCA = test: as above; assay type: cell-based; settings: Balb/C, Renal cell, 5 hours at 37° C.
Protocol: as §1

P815 tumour cells = settings: mice bearing P815 tumour; 5 mg/kg Rhodamine conjugated to HPMA intraperitoneally; six hours after injection; FIG. 1
Protocol: For tumour accumulation studies, various strains of mice bearing a variety of tumours were injected intraperitoneally with 5 mg/kg Rhodamine conjugated to the HPMA polymers. Six hours after injection, the mice were sacrificed, their tumours removed and cryo-embedded before cryostatic sectioning. The level of accumulation of the Rhodamine-HPMA was determined by fluorescent microscopy using a Zeiss microscope equiped with Axioplan software. […] Blue staining is BisBenzamide staining of cell nuclei.

## Rhodamine-HPMA polymer
O157
  Uptake into the cells (internalization of the rhodamine fluorophore, fluorescent microscopy), relative scale: +/−
4T1
  Uptake into the cells (internalization of the rhodamine fluorophore, fluorescent microscopy), relative scale: −
B16
  Uptake into the cells (internalization of the rhodamine fluorophore, fluorescent microscopy), relative scale: −
BW5147
  Uptake into the cells (internalization of the rhodamine fluorophore, fluorescent microscopy), relative scale: +/−
Colo-26
  Uptake into the cells (internalization of the rhodamine fluorophore, fluorescent microscopy), relative scale: −
HCT-116
  Uptake into the cells (internalization of the rhodamine fluorophore, fluorescent microscopy), relative scale: +
ID8
  Uptake into the cells (internalization of the rhodamine fluorophore, fluorescent microscopy), relative scale: −
JC
  Uptake into the cells (internalization of the rhodamine fluorophore, fluorescent microscopy), relative scale: −
L1210FR
  Uptake into the cells (internalization of the rhodamine fluorophore, fluorescent microscopy), relative scale: −
L1210
  Uptake into the cells (internalization of the rhodamine fluorophore, fluorescent microscopy), relative scale: −
LL-2
  Uptake into the cells (internalization of the rhodamine fluorophore, fluorescent microscopy), relative scale: −
M109
  Uptake into the cells (internalization of the rhodamine fluorophore, fluorescent microscopy), relative scale: −
MMT060562
  Uptake into the cells (internalization of the rhodamine fluorophore, fluorescent microscopy), relative scale: −
Ov 2008
  Uptake into the cells (internalization of the rhodamine fluorophore, fluorescent microscopy), relative scale: −
Ovcar
  Uptake into the cells (internalization of the rhodamine fluorophore, fluorescent microscopy), relative scale: −
P815
  Uptake into the cells (internalization of the rhodamine fluorophore, fluorescent microscopy), relative scale: −
RENCA
  Uptake into the cells (internalization of the rhodamine fluorophore, fluorescent microscopy), relative scale: −
P815 tumour cells
  Level of accumulation / polymer uptake by P815 tumour cells (fluorescent microscopy of cryostat sections): accumulation
